We go through three molecules from publication PMC5978685, “Design, Synthesis, and Evaluation of Novel Immunomodulatory Small Molecules Targeting the CD40–CD154 Costimulatory Protein-Protein Interaction” (Molecules : A Journal of Synthetic Chemistry and Natural …, 2018).

Read-outs that look alike come from different tables or passages of the source.

By IC50 is commonly meant the concentration needed to halve the response being measured.

For data set [1], the target named is T1, CD40–CD154 (CD40L) (Homo sapiens, UniProt P29965).
T1 construct: purchased Enzo Life Sciences
T1 sequence (P29965 116-261 limits assumed): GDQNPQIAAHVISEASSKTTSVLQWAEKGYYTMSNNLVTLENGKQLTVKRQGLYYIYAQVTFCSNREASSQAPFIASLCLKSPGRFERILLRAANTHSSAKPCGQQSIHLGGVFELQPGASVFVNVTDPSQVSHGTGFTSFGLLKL
Kind of data set: cell-free ELISA-type binding inhibition assay, CD40–CD154. The conditions noted are these: for selectivity toward CD40–CD154 against all other PPIs tested: vs OX40–OX40L, BAFFR–BAFF, TNF-R1–TNF-α. The text has this: As a first assessment, the CD40–CD154 inhibitory activity of compounds 6–19 (Figure 2, Table 1) was quantified using a cell-free in vitro binding inhibition assay as described before. Data fitted with typical sigmoidal concentration dependence curves (log inhibitor versus response model in GraphPad Prism, Hill slope n = 1) are summarized in Figure 3A. […] Polymolecular conglomeration and/or aggregation is often a cause of promiscuous inhibition in screening assays. Therefore, just as in our previous work, we checked for this, and we confirmed for several compounds that inhibition due to aggregation is not the case by retesting inhibitory activity in the presence of a non-ionic detergent (Triton-X 100, 0.01%) as recommended for the detection of such effects.
(§1) Binding inhibition assays were performed in a 96-well cell-free format as described before. Briefly, microtiter plates (Nunc F Maxisorp, 96-well; Thermo Fisher Scientific, Waltham, MA, USA) were coated overnight at 4 °C with 100 μL/well of Fc-conjugated receptors diluted in PBS pH 7.2. This was followed by blocking with 200 μL/well of blocking solution (PBS pH 7.2, 0.05% Tween-20, 1% BSA) for 1 h at RT. Then, plates were washed twice using washing solution (PBS pH 7.4, 0.05% Tween-20) and tapped dry before the addition of the appropriate FLAG tagged ligands along with different concentrations of tested dyes diluted in binding buffer (100 mM HEPES, 0.005% BSA pH 7.2) to give a total volume of 100 μL/well. After 1 h incubation, three washes were conducted, and anti-FLAG HRP conjugate was used to detect the bound FLAG-tagged ligand. Plates were washed four times before the addition of 120 μL/well of HRP substrate TMB (3,3′,5,5′-tetramethylbenzidine) and kept in the dark for up to 15 min. The reaction was stopped using 30 μL of 1M H2SO4, and the absorbance value was read at 450 nm. The concentrations of receptors used were 0.3 μg/mL for CD40, TNF-R1, and BAFFR; 0.6 μg/mL for OX40. The concentrations of the ligands were fixed at 0.02 μg/mL for CD154 and TNF-α, 0.06 μg/mL for OX40L, and 0.03 μg/mL for BAFF. These values were selected following preliminary testing to optimize response (i.e., to produce a high-enough signal at conditions close to half-maximal response, EC50). […] To verify that inhibition is not due to colloidal aggregation, CD40 binding inhibition was also measured in the presence of the non-ionic detergent Triton-X 100 (0.01%), as recommended for the detection of such effects.
(§2) All binding inhibition and cell assays were tested in duplicate or triplicate per plates, and assays were performed as at least three independent experiments. As before, binding and cytotoxicity data were converted to percent inhibition and fitted with standard log inhibitor vs. normalized response models using nonlinear regression in GraphPad Prism (GraphPad, La Jolla, CA, USA) to establish half-maximal (median) inhibitory concentration (IC50) or median lethal concentration (LC50) values. Cell assay data were fitted with a similar model that also allowed for a variable slope using the log inhibitor vs. normalized response (variable slope) model from Prism with a Hill slope (n) shared across all compounds. Cell assays and draining lymph node data were analyzed by one-way repeated-measures analysis of variance (ANOVA) followed by Dunnett’s multiple comparison test as a post hoc test for individual differences using GraphPad Prism and a significance level of p < 0.05 for all comparisons.
(§3) Data are (counterclockwise) for human CD40–CD154 (CD40L) (A); OX40–OX40L (B); BAFFR–BAFF (C); and TNF-R1–TNFα (D) and were fitted with standard binding curves. Data are average ± SD (normalized to percent binding) for n = 3 independent experiments with duplicates for each condition.

The target in the next data set is T2, OX40–OX40L (Homo sapiens, UniProt P23510).
T2 construct: purchased Enzo Life Sciences
T2 sequence (P23510 51-183 limits assumed): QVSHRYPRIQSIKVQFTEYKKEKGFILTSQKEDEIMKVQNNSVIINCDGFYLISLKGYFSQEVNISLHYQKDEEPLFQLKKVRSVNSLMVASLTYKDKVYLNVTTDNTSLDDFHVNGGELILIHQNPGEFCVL
Put plainly: cell-free ELISA-type binding inhibition assay, OX40–OX40L. As for the experimental part:
(§4) In parallel with the CD40–CD154 assay, the ability of these compounds to inhibit other TNFSFR–TNFSF PPIs, including OX40–OX40L, BAFFR–BAFF, and TNF-R1–TNF-α, was also assessed (Figure 3B–D).
as §1, §2, §3
Background: ELISA stands for enzyme-linked immunosorbent assay.

For the next data set, the target named is T3, BAFFR–BAFF (Homo sapiens, UniProt Q9Y275).
T3 construct: purchased Enzo Life Sciences
T3 sequence (Q9Y275 134-285 limits assumed): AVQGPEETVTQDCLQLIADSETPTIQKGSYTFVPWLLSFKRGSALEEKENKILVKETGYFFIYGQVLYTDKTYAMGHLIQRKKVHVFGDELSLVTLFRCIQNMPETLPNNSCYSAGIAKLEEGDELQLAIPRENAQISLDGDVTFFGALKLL
Put plainly: cell-free ELISA-type binding inhibition assay, BAFFR–BAFF. As for the experimental part: as §4, §1, §2, §3

The target in the next data set is T4, TNF-R1–TNFα (Homo sapiens, UniProt P01375).
T4 construct: purchased Enzo Life Sciences
T4 sequence (P01375 85-233 limits assumed): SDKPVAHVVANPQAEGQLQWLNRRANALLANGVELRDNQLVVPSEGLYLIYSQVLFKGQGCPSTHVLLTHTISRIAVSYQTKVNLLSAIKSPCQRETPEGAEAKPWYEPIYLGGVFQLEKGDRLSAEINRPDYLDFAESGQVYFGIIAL
Put plainly: cell-free ELISA-type binding inhibition assay, TNF-R1–TNFα. Conditions: cell-free TNF-R1–TNFα binding inhibition; read-out: TNF IC50. The protocol:
as §4, §1, §2, §3

Data set [2] concerns CD154-induced NF-κB activation in CD40 sensor cells. Kind of data set: CD40 sensor cell assay (HEK Blue CD40, SEAP reporter). It counts as cell-based, human.
Description: (§5) As further confirmation of the inhibitory activity of our compounds, a cell-based assay was used with sensor cells (HEK Blue CD40) containing a secreted embryonic alkaline phosphatase (SEAP) reporter gene under the control of a promoter fused to a NF-κB binding site and transfected with CD40. […] For all tested compounds, the corresponding IC50 values are higher than those determined in the cell-free binding inhibition assay (Table 1) representing a loss of activity which is likely due to non-specific binding on account of the presence of proteins and cells in the assay, as well as hydrophobicity-related problems. Cytotoxicities were also evaluated in these same cells and at the same concentrations using a standard MTS assay to ensure that effects are present at non-toxic concentration levels.
CD40 expressing NF-κB sensor cells (HEK Blue, InvivoGen, San Diego, CA, USA) were used to assess the ability of the present compounds to block CD154-induced activation as described before. Briefly, cells were maintained in DMEM at 80% confluence for each experiment. Cells were trypsinized and re-suspended in the same medium without FBS and seeded on 96-well microtiter plates at a density of 50,000 cells/well in the absence and presence of various concentrations of compounds diluted in the same media. For ligand mediated stimulation, a concentration of recombinant human CD154 (100 ng/mL) found to induce an optimal response was maintained in the wells for this purpose. After 24 h of incubation at 37 °C, 40 μL supernatant of each well were taken and added to another 96-well microtiter plate containing 160 μL/well of QUANTI-Blue (InvivoGen). The level of SEAP was determined after 1 h of incubation at 37 °C by reading at 650 nm using a spectrophotometer. A monoclonal anti-human CD154 antibody (clone 40804, R&D Systems, Minneapolis, MN, USA) was used as a positive control at 240 nM concentration.
as §2
Figure 5 Inhibition of CD154-induced NF-κB activation in CD40 sensor cells by compounds 6, 14, 15, and 18 in a concentration-dependent manner. Tartrazine (TZ) and an anti-CD154 antibody (mAb; single dose, 240 nM) were included as negative and positive controls, respectively. Data are average ± SD (normalized to CD154-activated cells alone) for n = 2 independent experiments with duplicates for each condition.

Data set [3] in a line: MTS cytotoxicity assay in HEK Blue cells. Format: cell-based. Conditions: human, HEK Blue CD40 sensor cells; HEK Blue cells, 24 h; read-out: LC50 (cytotoxicity, MTS).
Description: as §5
(§6) For the MTS assay, HEK Blue cells were cultured and prepared in the same manner as in the CD40 sensor assay. Then cells were added to a 96-well microtiter plate at a density of 50,000 cells/well in the absence or presence of various concentrations of compounds diluted in the same media, without the addition of CD154. The plate was incubated at 37 °C for 24 h. 20 µL per well of MTS, 3-(4,5-dimethylthiazol-2-yl)-5-(3-carboxymethoxyphenyl)-2-(4-sulfophenyl)-2H-tetrazolium, (Promega, Madison, WI, USA) was added to the culture after treatments, and cells were incubated at 37 °C for 4 h. Formazan levels were measured using a plate reader at 490 nm.
as §2

In the next data set the test system is HEK Blue cells. Put plainly: MTS cytotoxicity assay in HEK Blue cells. The conditions noted are these: LC50 (MTS) / NF-κB IC50 in sensor cells. It counts as cell-based.
Description: as §5, §6, §2
A general note: Formazan colour is commonly taken as a measure of viable cells.

Data set [4] in a line: solubilization in the in vivo dosing vehicle. It counts as physicochemical. Conditions: vehicle 20% HPβCD.
Another data set concerns the target T5, CD154 (CD40L) (Homo sapiens, UniProt P29965).
T5 construct: purchased Peprotech
T5 sequence (P29965 113-261 limits assumed): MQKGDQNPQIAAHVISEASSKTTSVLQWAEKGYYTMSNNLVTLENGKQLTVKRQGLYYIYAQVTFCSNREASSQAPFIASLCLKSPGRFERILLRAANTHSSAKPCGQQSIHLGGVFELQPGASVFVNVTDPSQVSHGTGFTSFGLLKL
Kind of data set: protein thermal shift (differential scanning fluorimetry), CD154. Format: binding. Conditions: 25 μM of 11, 10 μM of DRI-C21045; CD154 0.05 mg/mL. The text has this: (§7) A protein thermal shift assay (differential scanning fluorimetry, also known as ThermoFluor assay) was used to establish whether our small-molecule probes bind to CD40 or CD154 (CD40L). This technique quantifies the shift in protein stability due to ligand binding via use of a dye whose fluorescence increases when exposed to hydrophobic surfaces, which happens as the protein unfolds exposing its normally buried hydrophobic core residues. […]
(§8) This assay was used following standard protocols as described in the literature to establish whether CD154 or CD40 is the binding partner of our compounds. Sypro orange (ThermoFisher; Waltham, MA, USA) was used as the fluorescence detection dye with an RT-PCR machine (StepOnePlus, Applied Biosystems (Foster City, CA, USA); detection on ROX channel, 575/602 nm) programmed to equilibrate samples at 25 °C for 90 s and then increase temperature to 99 °C by 0.4 °C every 24 s before taking a reading. Melting point of the protein is considered the lowest point of the first derivative plot, as calculated by the software included with the RT-PCR machine. Optimal concentrations were determined by performing a series of preliminary scans at various concentrations of protein, compound, and dye (CD154 0.05 mg/mL, CD40-Fc 0.1 mg/mL, Sypro orange 4×, 100 mM HEPES buffer, 10 μM of DRI-C21045 and 25 μM of 11). […]
On the technique in general: DSF heats the sample and reads unfolding from a dye or from intrinsic fluorescence.

Another data set concerns the target T6, CD40 (Homo sapiens, UniProt P25942).
T6 construct: purchased Enzo Life Sciences
Put plainly: protein thermal shift (differential scanning fluorimetry), CD40. It counts as binding. The conditions noted are these: 25 μM of 11, 10 μM of DRI-C21045; CD40-Fc 0.1 mg/mL.
Description: as §7, §8

Data set [5] addresses T1, CD40–CD154 (CD40L). Details: method as in PMID 29024591. Conditions: read-out: CD40–CD154 IC50 (previous work); cited from earlier work.
The mark [6] stands for this setting: cell-free CD40–CD154 binding inhibition, read-out: CD40 IC50.

T6 sequence (P25942 21-277): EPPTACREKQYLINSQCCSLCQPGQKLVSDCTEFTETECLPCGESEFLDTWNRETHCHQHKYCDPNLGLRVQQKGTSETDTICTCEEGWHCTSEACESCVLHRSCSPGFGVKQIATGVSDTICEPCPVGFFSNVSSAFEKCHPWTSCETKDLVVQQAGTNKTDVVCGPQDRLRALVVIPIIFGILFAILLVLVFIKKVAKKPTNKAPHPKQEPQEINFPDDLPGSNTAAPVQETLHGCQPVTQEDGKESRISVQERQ

Consider `O=C(Nc1ccc(-c2ccc(C(=O)Nc3cccc4cccc(S(=O)(=O)O)c34)cc2)cc1)c1ccc(-c2ccc([N+](=O)[O-])cc2)cc1` [Compound 14, 8-(4′-(4′-Nitro-[1,1′-biphenyl]-4-carboxamido)-[1,1′-biphenyl]-4-carboxamido)naphthalene-1-sulfonic acid], for which the half-maximal inhibitory concentration (IC50) on CD40–CD154 (CD40L) [1] (setting [6]) was 0.02 µM; at OX40–OX40L, 6.88 µM; on BAFFR–BAFF it was 0.784 µM; at TNF-R1–TNFα it was 70.3 µM; in data set [2] (Homo sapiens, CD154 100 ng/mL, 24 h), 11.1 µM. Besides, the entries for the “selectivity toward CD40–CD154 against all other PPIs tested” value at CD40–CD154 (CD40L) [1] and at CD40–CD154 (CD40L) [1] (listed as DRI-C21091) were above 30 fold and “more than thirty-fold”, respectively. In addition, in data set [2], the “inhibition of CD154-induced NF-κB activation (qualitative)” value is listed as “concentration-dependent inhibition”. In addition, in data set [3], the CC50 at 24 h was determined as 55.6 µM. Moreover, in the data set on HEK Blue cells, the “therapeutic index, TI = LC50/IC50” value worked out at 5. Besides, the “solubility in the vehicle for in vivo dosing” value in data set [4] is given as “could not be sufficiently solubilized in the vehicle”.
In the case of `COC(=O)c1ccc(C(=O)Nc2ccc(-c3ccc(C(=O)Nc4cccc5cccc(S(=O)(=O)O)c45)cc3)cc2)cc1` [DRI-C21045, reference compound], the “shift in melting temperature (Tm) of CD154” value at CD154 (CD40L) is on record as “caused clear shifts”. Also, on CD40, the “shift in melting temperature (Tm) of CD40” value is on record as “not for CD40”. Moreover, the half-inhibitory concentration (IC50) on CD40–CD154 (CD40L) [5] was 0.17 µM.
As to `COC(=O)c1ccc(C(=O)Nc2ccc(-c3ccc(C(=O)Nc4ccc(S(=O)(=O)O)c5cccc(S(=O)(=O)O)c45)cc3)cc2)cc1` [Compound 11, 4-(4′-(4-(Methoxycarbonyl)benzamido)-[1,1′-biphenyl]-4-carboxamido)naphthalene-1,5-disulfonic acid], the half-inhibitory concentration (IC50) was found to be 60.1 µM on CD40–CD154 (CD40L) [1] (setting [6]); 60 µM at CD40–CD154 (CD40L) [1] (cell-free binding inhibition assay, read-out: CD40–CD154 IC50); 120 µM at OX40–OX40L; 540 µM on BAFFR–BAFF; 456 µM at TNF-R1–TNFα. Moreover, the “shift in melting temperature (Tm) of CD154” value at CD154 (CD40L) is on record as “caused clear shifts”. The “shift in melting temperature (Tm) of CD40” value at CD40 is “not for CD40”.
